Results from patent publication US12024584B2, “Methods and compositions for polyurethane dispersions using caprolactam-derived solvents” (AdvanSix Resins & Chemicals LLC, priority 2017, dated 2024).

Tests used:
[1] = Solubility of DMPA in solvents
Description: Solubility was tested between the various solvents to determine their applicability in the PUD manufacturing processes. Solubility is the amount of a substance (coalescing agent) that dissolves in a unit volume of a liquid substance (solvent) to form a saturated solution under specified conditions of temperature and pressure. For the examples, amounts of […] (DMPA) were dissolved in each solvent.

[2] = Minimum film forming temperature, non-pigmented resin + coalescing agent; type: physicochemical; conditions: resin with 5 wt. % coalescing agent, film thickness 350 μm
[3] = Viscosity and storage stability of pigmented PUD formulations; type: physicochemical; conditions: 1 month at 50° C., FIG. 5
Excerpt: (§1) Tests were first performed to determine the coalescing agent level for pigmented and complete PUD formulations in order to achieve the optimum film formation. Complete paints were mixed with 0.7 wt. %, 1.5 wt. %, 3.0 wt. % and 5.0 wt. % of coalescing agents and applied on tin plated steel at a wet film thickness of around 250 μm, where the weight percentage was based on the pure polyurethane dispersion resins. […] Based on the observations, 3 wt. % dosage of coalescing agent was selected. Complete PUD formulations with pigments, fillers and other additives were prepared as per Table 5, and used to test and determine the coalescing properties of the caprolactam-derived solvents and other known coalescing agents.
Dispersions and emulsions tend to aggregate polyurethane particles during storage. One way to determine the stability of a polyurethane dispersion is to measure viscosity of the polyurethane dispersion over time. Viscosity is a measure of a solvent's resistance to gradual deformation by shear stress or tensile stress. […] The storage stability of the dispersions was evaluated based on variations between viscosity measurements performed on paints shortly after their preparation and after their storage for either one month at room temperature or one month at 50° C.

[4] = MFFT of pigmented and complete PUDs; type: physicochemical; conditions: pigmented and complete PUD, 3 wt. % coalescing agent
Excerpt: as §1, with “agents. The standard test for determining this temperature involves using a MFFT-BAR, as specified by standards ASTM D 2354 and ISO 2115. In general, the MFFT of a paint or coating is reduced temporarily by the use of coalescing agents.” for “agents.”

[5] = Open time (ASTM D7488); type: physicochemical; conditions: ASTM D7488, 23±2° C., 50±5% RH, wet film 200 μm
Excerpt: as §1
Open times were determined according to the ASTM D7488 “Test Method for Open Time of Latex” standard and the tests were performed under controlled temperature and humidity (23±2° C. and 50±5% RH). In general, the paints were applied at a wet film thickness of 200 μm on contrasting sealed charts by means of a doctor blade applicator, and “X” marks are made immediately with the wide curved end of a wooden paint brush. After a determined time internal, the brush was dipped into the paint to be tested and brushing of the X-marks was started in perpendicular direction to the initial drawdown using 10 strokes back and forth to work the paint under test into the drawdown area. This procedure is repeated after several time intervals. After their complete drying (1 week), the painted panels are observed by two different observers and the time for which the “X” marks to become visible is considered as the open time.

[6] = Drying time (ASTM D1640 / ASTM D5895); type: physicochemical; conditions: 200 μm humid film; blends by ASTM D1640, single solvents by ASTM D5895
Excerpt: as §1
The drying times for the pigmented PUD formulations were determined according to the ASTM D1640 “Standard Test Methods for Drying, Curing, or Film Formation of Organic Coatings” standard or the ASTM D5895 “Standard Test Methods for Evaluating Drying or Curing During Film Formation of Organic Coatings Using Mechanical Recorders” standard. Four stages of drying can be identified depending on the trace left by the needle on the paint surface: Stage 1—Set-to-Touch time, Stage 2—Tack-Free time, Stage 3—Dry-Hard time, and Stage IV—Dry trough time. However, Stage IV is often hard to detect.
In general, the paints were applied at a humid film thickness of 200 μm by means of a bar coater on a Leneta sheet and the needle rate was set at 60 cm/hr.
For the present examples, the drying times for the 2:1 A:B, 1:1 A:B, and 1:2 A:B solvents were determined using the ASTM D1640 standard, and the drying times for NM CPL, NE CPL, NMP, NBP, ester amide, and ester alcohol were determined using the ASTM D5895 standard.

[7] = Persoz hardness of pigmented and complete PUDs; type: physicochemical; conditions: pigmented, in s
Excerpt: as §1
Persoz hardness measurements were performed on pigmented paints that were applied on tin plated steel using a doctor blade applicator at a dry film thickness (DFT) around 50 μm according to the ISO 1522 standard. […] For instance, the 28 day hardness for N-ethyl caprolactam (NE CPL) was approximately 104.6±0.5, while the 28 day hardness for NMP was approximately 108.8±2.4, and the 28 day hardness for ester alcohol and N-methyl caprolactam (NM CPL) were approximately 124.8±1 and 126.0±1, respectively, while the 28 day hardness for NBP was approximately 135.8±5.

[8] = Gloss of pigmented and complete PUDs (ISO 2813); type: physicochemical
Excerpt: as §1
(§2) Gloss measurements serve as an indicator of the paints surface quality. Gloss and color measurements were determined according to the ISO 2813 standard and the ISO 7724-2 standard (SCI-D65/10°), respectively.

[9] = Color of pigmented and complete PUDs (ISO 7724-2); type: physicochemical
Excerpt: as §1, §2

[10] = Scrub resistance of pigmented and complete PUDs (ISO 11998); type: physicochemical
Excerpt: as §1
Scrub resistance was tested according the ISO 11998 “Paints and Varnishes—Determination of Wet-Scrub Resistance and Cleanability of Coatings” standard. In this testing method, the paint was applied on a test panel (Leneta sheet) using a film applicator at the specific gap clearance. After drying and conditioning for four weeks at room temperature the coated panel was weighed and subject to 200 wet-scrub cycles in a scrub resistance machine. The panel was then washed, dried and weighed to determine the loss from which the mean loss in film thickness was calculated. […] For instance, N-methyl caprolactam (NM CPL), N-ethyl caprolactam (NE CPL), and blends thereof in the ratios of 1:2 and 1:1, all had less loss of thickness (2.035 μm, 1.797 μm, 1.39 μm, and 1.64 μm, respectively) as compared to NMP (2.090 μm) and NBP (2.213 μm).

[11] = Freeze and thaw stability (ASTM D2243-95); type: physicochemical
Description: Water-based emulsions and dispersions are susceptible to irreversible coagulation by freezing. Freeze and thaw stability was tested according the ASTM D2243-95 standard.
For these examples, pigmented PUD paints were subject to freeze-thaw cycles of 16 hours at −20° C. and 8 hours at room temperature and subsequently subject to visible observations. The paints were then applied on a tin plated steel plate at a thickness of approximately 200 μm for observing film properties.
In addition, the freeze-thaw stability was best for caprolactam-derived coalescing agents (NM CPL) and the blends even after subject to five cycles (see FIG. 9). In particular, the paints were visually observed after each cycle to see if there was any viscosity change, i.e., thickening of the paint. Then, the dry films of the coatings were observed visually.

Solubility [1]: 27.5 g/100 g of Solvent
MFFT [2]: −0.8±0.4 °C
storage stability (viscosity buildup) [3]: low viscosity buildup
MFFT [4]: −0.8 °C
Open Time [5]: 14 min
Drying Time [6]: 11.6 min
Persoz Hardness ([7]; 1 Day): 95.2 ± 1
Persoz Hardness ([7]; 7 Days): 101.2 ± 3
Persoz Hardness ([7]; 14 Days): 122.0 ± 3
Persoz Hardness ([7]; 21 Days): 124.0 ± 3
Persoz Hardness ([7]; 28 Days, listed as NM CPL): ~126.0±1
Persoz Hardness ([7]; 28 Days, listed as NMCPL): 126.0 ± 1
Gloss 20° ([8]; 20°): 1.3 ± 0
Gloss 60° ([8]; 60°): 3.0 ± 0
Gloss 85° ([8]; 85°): 23.2 ± 0.2
Color (Black background) L* ([9]; Black background): 94.09
Color (Black background) a* ([9]; Black background): −0.97
Color (Black background) b* ([9]; Black background): 2.25
Color (White background) L* ([9]; White background): 95.07
Color (White background) a* ([9]; White background): −0.52
Color (White background) b* ([9]; White background): 3.32
effect on color (yellowing) ([9]; pigmented PUD): no yellowing
Wt. Loss ([10]; 200 wet-scrub cycles): 3.763 g/m^2
Loss of thickness after 200 wet-scrub cycles ([10]; calculated from weight loss): 2.035 µm
SMILES: CN1CCCCCC1=O [N—MeCPL, N-methyl caprolactam]
freeze-thaw stability and film properties (comparison) ([11]; FIGS. 8 and 9): better freeze-thaw stability and film properties than NBP and ester alcohol
freeze-thaw stability: viscosity change (thickening of the paint) ([11]; cycles of 16 hours at −20° C. and 8 hours at room temperature): no such viscosity change even after five freeze-thaw cycle
